Earlier results, collected in patent publication US7091196B2, “Bifunctional heterocyclic compounds and methods of making and using same” (Rib-X Pharmaceuticals, Inc., priority 2002, dated 2006).

Conditions: literature report, Gregory et al. (1989) J. Med. Chem. 32: 1673-1681

COC(=O)c1nnn(C[C@@H]2CN(c3ccc(C(C)=O)cc3)C(=O)O2)c1C(=O)OC [Compound 6]
activity as an antibacterial agent: inactive
